In patent US10745382B2 (BRISTOL-MYERS SQUIBB COMPANY, priority 2015, dated 2020):
Where two headings read alike, the source gives them in different places.

Biological target: T1, PD-1/PD-L1 (Homo sapiens, UniProt Q9NZQ7)
T1 construct: made in house; host or cells: HEK293T
Assay: PD-1/PD-L1 Homogenous Time-Resolved Fluorescence (HTRF) binding assay
Settings: PD-L1-His 10 nM, PD-1-Ig 20 nM, read-out: Range or IC50
How it was run: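 Read-out is time-resolved FRET between europium cryptate-labelled anti-Ig (1 nM final) and APC-labelled anti-His (20 nM final), both dispensed onto the binding mix. Assay buffer: dPBS containing 0.1% bovine serum albumin and 0.05% Tween-20.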

T1 sequence (Q9NZQ7 with tags, fused parts or gaps): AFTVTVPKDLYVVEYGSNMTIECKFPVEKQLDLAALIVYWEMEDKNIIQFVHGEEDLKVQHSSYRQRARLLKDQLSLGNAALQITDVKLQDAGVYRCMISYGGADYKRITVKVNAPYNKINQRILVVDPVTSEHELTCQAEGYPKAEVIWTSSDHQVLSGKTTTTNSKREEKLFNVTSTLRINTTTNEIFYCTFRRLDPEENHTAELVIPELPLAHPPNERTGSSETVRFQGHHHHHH

IC50 (value given as range class) [nM] | IC50 (numeric IC50) [nM] | SMILES
0.21 to 10 | – | Cc1c(COc2cc(OCc3cncc(C#N)c3)c(CN3CCCC[C@H]3C(=O)O)cc2Cl)cccc1-c1cccc(OCCCN2CCCCC2)c1C [Example 2213, (2S)-1-(5-chloro-2-((5-cyanopyridin-3-yl)methoxy)-4-((2,2′-dimethyl-3′-(3-(piperidin-1-yl)propoxy)biphenyl-3-yl)methoxy)benzyl)piperidine-2-carboxylic Acid]
0.21 to 10 | – | Cc1c(COc2cc(OCc3cncc(C#N)c3)c(CN3CCCC[C@H]3C(=O)O)cc2Cl)cccc1-c1cccc(OCCCNCC(O)c2ccccn2)c1C (stereo partly drawn) [Example 2222, (2S)-1-(5-chloro-2-((5-cyanopyridin-3-yl)methoxy)-4-((3′-(3-(2-hydroxy-2-(pyridin-2-yl)ethylamino)propoxy)-2,2′-dimethylbiphenyl-3-yl)methoxy)benzyl)piperidine-2-carboxylic Acid]
0.21 to 10 | – | Cc1c(COc2cc(OCCCN3CC[C@@H](O)C3)c(CN[C@](C)(CO)C(=O)O)cc2Cl)cccc1-c1cccc(OCCCN2CC[C@@H](O)C2)c1C [Example 1531, (R)-2-((5-chloro-2-(3-((R)-3-hydroxypyrrolidin-1-yl)propoxy)-4-((3′-(3-((R)-3-hydroxypyrrolidin-1-yl)propoxy)-2,2′-dimethyl-[1,1′-biphenyl]-3-yl)methoxy)benzyl)amino)-3-hydroxy-2-methylpropanoic Acid]
0.21 to 10 | – | Cc1cc(OCCCN2CC[C@@H](O)C2)ccc1-c1cccc(COc2cc(OCc3cncc(C#N)c3)c(CN3CCCC[C@H]3C(=O)O)cc2Cl)c1C [Example 1071, (S)-1-(5-chloro-2-((5-cyanopyridin-3-yl)methoxy)-4-((4′-(3-((R)-3-hydroxypyrrolidin-1-yl)propoxy)-2,2′-dimethyl-[1,1′-biphenyl]-3-yl)methoxy)benzyl)piperidine-2-carboxylic Acid]
0.21 to 10 | – | Cc1c(COc2cc(OCc3cncc(C#N)c3)c(CN3CCCC(CO)C3)cc2Cl)cccc1-c1cccc(OCCCN2CCCC(CO)C2)c1C (stereo not shown) [Example 2255, 5-((4-chloro-2-((3-(hydroxymethyl)piperidin-1-yl)methyl)-5-((3′-(3-(3-(hydroxymethyl)piperidin-1-yl)propoxy)-2,2′-dimethylbiphenyl-3-yl)methoxy)phenoxy)methyl)nicotinonitrile]
0.21 to 10 | – | Cc1c(COc2cc(OCc3cncc(C#N)c3)c(CN3CCCC[C@H]3C(=O)O)cc2Cl)cccc1-c1cccc(OCCCN2CC[C@@H](O)C2)c1F [Example 1520, (S)-1-(5-chloro-2-((5-cyanopyridin-3-yl)methoxy)-4-((2′-fluoro-3′-(3-((R)-3-hydroxypyrrolidin-1-yl)propoxy)-2-methyl-[1,1′-biphenyl]-3-yl)methoxy)benzyl)piperidine-2-carboxylic acid]
100 to 2000 | – | CCNC(=O)c1cccc(-c2cccc(COc3cc(OCc4cc(F)cc(F)c4)c(CNC(C)(CO)CO)cc3Cl)c2C)c1C [Example 4022, 3′-((2-chloro-5-((3,5-difluorobenzyl)oxy)-4-(((1,3-dihydroxy-2-methylpropan-2-yl)amino)methyl)phenoxy)methyl)-N-ethyl-2,2′-dimethyl-[1,1′-biphenyl]-3-carboxamide]
0.21 to 10 | – | COC(=O)[C@@H]1CCN(CCCOc2cccc(-c3cccc(COc4cc(OCc5cncc(S(C)(=O)=O)c5)c(CN[C@](C)(CO)C(=O)O)cc4Cl)c3C)c2C)C1 [Example 1082, (R)-2-((5-chloro-4-((3′-(3-((R)-3-(methoxycarbonyl)pyrrolidin-1-yl)propoxy)-2,2′-dimethyl-[1,1′-biphenyl]-3-yl)methoxy)-2-((5-(methylsulfonyl)pyridin-3-yl)methoxy)benzyl)amino)-3-hydroxy-2-methylpropanoic Acid]
0.21 to 10 | – | COc1cc(CCc2cccc(-c3cccc(OCCCN4CC[C@@H](O)C4)c3C)c2C)c(Cl)cc1CN1CCCC[C@H]1C(=O)O [Example 4518, (S)-1-(5-chloro-4-(2-(3′-(3-((R)-3-hydroxypyrrolidin-1-yl)propoxy)-2,2′-dimethyl-[1,1′-biphenyl]-3-yl)ethyl)-2-methoxybenzyl)piperidine-2-carboxylic Acid]
0.21 to 10 | – | CCC[C@H](NCc1cc(Cl)c(OCc2cccc(-c3cccc(OCCCN4CC[C@@H](O)C4)c3C)c2C)cc1OCc1cncc(C#N)c1)C(=O)O [Example 4154, (S)-2-((5-chloro-2-((5-cyanopyridin-3-yl)methoxy)-4-((3′-(3-((R)-3-hydroxypyrrolidin-1-yl)propoxy)-2,2′-dimethyl-[1,1′-biphenyl]-3-yl)methoxy)benzyl)amino)pentanoic Acid]
0.21 to 10 | – | Cc1c(COc2cc(OCc3cncc(C#N)c3)c(CN3CCCC[C@H]3C(=O)O)cc2Cl)cccc1-c1ccc2c(c1)OC(CCN1CC[C@@H](O)C1)CO2 (single isomer, unassigned) [Example 1505]
0.21 to 10 | – | Cc1c(COc2cc(OCc3cncc(S(C)(=O)=O)c3)c(CN3CCCC[C@H]3C(=O)O)cc2Cl)cccc1-c1cccc(OCCCN2CCC(CO)(C(=O)O)C2)c1Cl (single isomer, unassigned) [Example 1062]
0.21 to 10 | – | Cc1c(COc2cc(OCc3cncc(C#N)c3)c(CN[C@@](C)(CO)C(=O)O)cc2Cl)cccc1-c1cccc(OCCC(=O)N2CC[C@@H](O)C2)c1 [Example 1010, (S)-2-((5-chloro-2-((5-cyanopyridin-3-yl)methoxy)-4-((3′-(3-((R)-3-hydroxypyrrolidin-1-yl)-3-oxopropoxy)-2-methyl-[1,1′-biphenyl]-3-yl)methoxy)benzyl)amino)-3-hydroxy-2-methylpropanoic Acid]
– | 37 | Cc1c(COc2cc(OCc3cncc(C#N)c3)c(CN3CCCC[C@H]3C(=O)O)cc2Cl)cccc1-c1cccc(OCC(=O)N2CC[C@H](O)C2)c1 [Example 1005, (S)-1-(5-chloro-2-((5-cyanopyridin-3-yl)methoxy)-4-((3′-(2-((S)-3-hydroxypyrrolidin-1-yl)-2-oxoethoxy)-2-methyl-[1,1′-biphenyl]-3-yl)methoxy)benzyl)piperidine-2-carboxylic Acid]
0.21 to 10 | – | CC(=O)N[C@@H]1CCN(CCCOc2cccc(-c3cccc(COc4cc(OCc5cncc(C#N)c5)c(CNC(C)(CO)CO)cc4Cl)c3C)c2C)C1 [Example 2290, (R)—N-(1-(3-((3′-((2-chloro-5-((5-cyanopyridin-3-yl)methoxy)-4-(((1,3-dihydroxy-2-methylpropan-2-yl)amino)methyl)phenoxy)methyl)-2,2′-dimethyl-[1,1′-biphenyl]-3-yl)oxy)propyl)pyrrolidin-3-yl)acetamide]
0.21 to 10 | – | Cc1c(COc2cc(OCc3cncc(C#N)c3)c(CO)cc2Cl)cccc1-c1cccc(OCCCN(C)C[C@H](O)CO)c1Cl [Example 2025, (S)-5-((4-chloro-5-((2′-chloro-3′-(3-((2,3-dihydroxypropyl)(methyl)amino)propoxy)-2-methyl-[1,1′-biphenyl]-3-yl)methoxy)-2-(hydroxymethyl)phenoxy)methyl)nicotinonitrile]
0.21 to 10 | – | CC(=O)N[C@H]1CCN(CCCOc2cccc(-c3cccc(COc4cc(OCc5cncc(C#N)c5)c(CNC(CO)CO)cc4Cl)c3Cl)c2C)C1 [Example 2311, (S)—N-(1-(3-((2′-chloro-3′-((2-chloro-5-((5-cyanopyridin-3-yl)methoxy)-4-(((1,3-dihydroxypropan-2-yl)amino)methyl)phenoxy)methyl)-2-methyl-[1,1′-biphenyl]-3-yl)oxy)propyl)pyrrolidin-3-yl)acetamide]
0.21 to 10 | – | Cc1c(COc2cc(OCc3cncc(C#N)c3)c(CN3CCCC[C@H]3C(=O)O)cc2Cl)cccc1-c1cccc(OCCCN[C@@H](CO)c2ccccc2)c1C [Example 2230, (2S)-1-(5-chloro-2-((5-cyanopyridin-3-yl)methoxy)-4-((3′-(3-((R)-2-hydroxy-1-phenylethylamino)propoxy)-2,2′-dimethylbiphenyl-3-yl)methoxy)benzyl)piperidine-2-carboxylic Acid]
0.21 to 10 | – | Cc1ccc(OCCCN2CC[C@@H](O)C2)cc1-c1cccc(COc2cc(OCc3cncc(C#N)c3)c(CN3CCCC[C@H]3C(=O)O)cc2Cl)c1C [Example 1528, (S)-1-(5-chloro-2-((5-cyanopyridin-3-yl)methoxy)-4-((5′-(3-((R)-3-hydroxypyrrolidin-1-yl)propoxy)-2,2′-dimethyl-[1,1′-biphenyl]-3-yl)methoxy)benzyl)piperidine-2-carboxylic acid]
0.21 to 10 | – | Cc1c(COc2cc(OCc3cncc(C#N)c3)c(CN3CCCC[C@H]3C(=O)O)cc2Cl)cccc1-c1cccc(OCCCN2CC[C@H](CO)[C@H](O)C2)c1C [Example 2203, (2S)-1-(5-chloro-2-((5-cyanopyridin-3-yl)methoxy)-4-((3′-(3-((3 S,4R)-3-hydroxy-4-(hydroxymethyl)piperidin-1-yl)propoxy)-2,2′-dimethylbiphenyl-3-yl)methoxy)benzyl)piperidine-2-carboxylic Acid]
0.21 to 10 | – | N#Cc1cncc(COc2cc(OCc3cccc(-c4cccc(OCCCNC[C@H](O)CO)c4Cl)c3Cl)c(Cl)cc2CN2CCCC[C@H]2C(=O)O)c1 [Example 2049, (S)-1-(5-chloro-2-((5-cyanopyridin-3-yl)methoxy)-4-((2,2′-dichloro-3′-(3-(((S)-2,3-dihydroxypropyl)amino)propoxy)-[1,1′-biphenyl]-3-yl)methoxy)benzyl)piperidine-2-carboxylic Acid]
0.21 to 10 | – | Cc1c(COc2cc(OCc3cncc(C#N)c3)c(CN[C@@](C)(CO)C(=O)O)cc2Cl)cccc1-c1cccc(OCCCN2CCN(C)C(=O)C2)c1C [Example 2328, (S)-2-((5-chloro-2-((5-cyanopyridin-3-yl)methoxy)-4-((2,2′-dimethyl-3′-(3-(4-methyl-3-oxopiperazin-1-yl)propoxy)-[1,1′-biphenyl]-3-yl)methoxy)benzyl)amino)-3-hydroxy-2-methylpropanoic Acid]
